# Measured values: patent publication US20120252896A1, “METHODS AND COMPOSITIONS FOR MODULATION OF T-CELLS VIA THE KYNURENINE PATHWAY” (priority 2009, published 2012)
# Where two headings read alike, the source gives them in different places.
# Assays:
# [1] = test system: Th17 cells (CD4+ T cells under Th17 differentiating conditions; IL-17 production); experiment: IL-17 production by differentiating Th17 cells in vitro (ELISA); type: cell-based, mouse (C57BL/6); details: Mus musculus
# [2] = test system: Th1 cells (IFNγ production); experiment: IFNγ production by differentiating Th1 cells in vitro (ELISA); type: cell-based, mouse (C57BL/6); details: Mus musculus
# [3] = test system: differentiating Th17 cells; experiment: Inhibition of IL-17 production by CD4+ T cells under Th17 differentiating conditions (ELISA); type: cell-based, C57BL/6 mice; details: for IC50 Th17 (IL-17 production): differentiating Th17 cells in vitro, 6 days of culture, average ±S.E.; for inhibitory effect on IL-17 production: within the range of concentrations assayed
# [4] = test system: differentiating Th1 cells; experiment: Inhibition of IFNγ production during Th1 differentiation (ELISA); type: cell-based, C57BL/6 mice; details: differentiating Th1 cells in vitro, 6 days of culture, average ±S.E.
# Procedure: For comparison studies with Th1 cells, T cells were differentiated in the same in vitro conditions, with only anti-murine IL-4 neutralizing antibody, recombinant murine IL-2 (10 ng/ml, eBioscience) and recombinant murine IL-12p70 (20 ng/ml, BD Biosciences) and CD3/CD28 stimulation. The concentration of IFN in culture supernatants was measured by ELISA (BD Biosciences). L-kynurenine, 3′-hydroxy-DL-kynurenine, 3′-hydroxyanthranilic acid, anthranilic acid and quinolinic acid (Sigma) were dissolved in RPMI medium under agitation at 1 mM concentration and sterile filtered. Tryptophan metabolites were added individually or in combination, in twofold dilutions, to the differentiating medium of Th1 or Th17 cells for the 6 days of culture.
# [5] = 144 h, Table II, differentiating Th17 cells, 6 days, average ± S.E., read-out: IC50, IL-17 production, Th17
# [6] = Th17 differentiating conditions, read-out: IC50, IL-17 production
# [7] = 144 h, Table II, differentiating Th1 cells, 6 days, average ± S.E., read-out: IC50, IFNγ production, Th1
SMILES,"IC50 [1, 5]","IC50 [1, 6]","IC50 [2, 7]","IC50 ([2]; read-out: IC50, IFNγ production during Th1 differentiation)",IC50 Th17 (IL-17 production) [3],inhibitory effect on IL-17 production [3],IC50 Th1 (IFNγ production) [4],"IC50 ([4]; Mus musculus, 144 h)"
"Nc1c(O)cccc1C(=O)O [3′-Hydroxyanthranilic acid, 3′-hydroxyanthranilic acid]",27.7 ± 3.7 µM,27.7 ± 3.7 µM,57.6 ± 1 µM,57.6 ± 1 µM,–,–,–,–
"Nc1c(O)cccc1C(=O)CC(N)C(=O)O (racemic) [3′-Hydroxy-DL-kynurenine, 3′-hydroxy-DL-kynurenine]",68.1 ± 1.4 µM,68.1 ± 1.4 µM,153.8 ± 1.1 µM,–,–,–,–,–
"Nc1ccccc1C(=O)O [Anthranilic acid, anthranilic acid]",–,–,–,–,No inhibition,no inhibitory effect,No inhibition,–
"Nc1ccccc1C(=O)C[C@H](N)C(=O)O [L-Kynurenine, L-kynurenine]",100.8 ± 1 µM,100.8 ± 1 µM,154.4 ± 1.2 µM,–,–,–,–,–
"O=C(O)c1cccnc1C(=O)O [Quinolinic acid, quinolinic acid]",–,–,–,–,No inhibition,no inhibitory effect,–,112 ± 1.4 µM
